ChEMBL document CHEMBL1201862, “PubChem BioAssay data set” (2004)
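Dose response: 5 concentrations. Exposure: 48 h. Format: 96-well plates. Endpoint: linear interpolation; highest concentration if not reached. The concentration for 50% growth inhibition is given as GI50.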 The source made the active and inactive calls. Rule as the data show it: active = GI50 up to about 1.1 µM and inactive = higher.

Key:
Experiment in all cases: NCI tumour cell line growth inhibition, 48 h
[1] = tested on: 786-0
[2] = tested on: A498
[3] = tested on: A549
[4] = tested on: ACHN
[5] = tested on: BT-549
[6] = tested on: CAKI-1
[7] = tested on: CCRF-CEM
[8] = tested on: COLO 205
[9] = tested on: DU-145
[10] = tested on: EKVX
[11] = tested on: HCC 2998
[12] = tested on: HCT-116
[13] = tested on: HCT-15
[14] = tested on: HOP-62
[15] = tested on: HT-29
[16] = tested on: Hs-578T
[17] = tested on: IGROV-1
[18] = tested on: K562
[19] = tested on: KM12
[20] = tested on: M14
[21] = tested on: MCF7
[22] = tested on: MDA-MB-231
[23] = tested on: MDA-MB-435
[24] = tested on: MDA-N
[25] = tested on: MOLT-4
[26] = tested on: Malme-3M
[27] = tested on: NCI-H226
[28] = tested on: NCI-H23
[29] = tested on: NCI-H460
[30] = tested on: NCI/ADR-RES
[31] = tested on: OVCAR-3
[32] = tested on: OVCAR-4
[33] = tested on: OVCAR-5
[34] = tested on: OVCAR-8
[35] = tested on: PC-3
[36] = tested on: RPMI-8226
[37] = tested on: RXF 393
[38] = tested on: SF-268
[39] = tested on: SF-295
[40] = tested on: SK-MEL-2
[41] = tested on: SK-MEL-5
[42] = tested on: SK-OV-3
[43] = tested on: SN12C
[44] = tested on: SNB-19
[45] = tested on: SNB-75
[46] = tested on: SR
[47] = tested on: SW-620
[48] = tested on: T47D
[49] = tested on: U-251
[50] = tested on: UACC-257
[51] = tested on: UACC-62
[52] = tested on: UO-31

Measured: GI50

Cc1cc2c(c(C(=O)NCCC(=O)N[C@@H](C)C(=O)OCc3ccccc3)c1)Oc1c(cc(C)cc1C(=O)NCCC(=O)N[C@@H](C)C(=O)OCc1ccccc1)S2
inactive: [1] > 100 µM | [2] > 100 µM | [3] > 100 µM | [4] > 100 µM | [5] > 100 µM | [6] > 100 µM | [7] > 100 µM | [8] > 100 µM | [9] > 100 µM | [10] > 100 µM | [11] > 100 µM | [12] > 100 µM | [14] > 100 µM | [15] > 100 µM | [16] > 100 µM | [17] > 100 µM | [18] > 100 µM | [19] > 100 µM | [20] > 100 µM | [21] > 100 µM | [22] > 100 µM | [23] > 100 µM | [24] > 100 µM | [25] > 100 µM | [26] > 100 µM | [27] > 100 µM | [28] > 100 µM | [29] > 100 µM | [30] > 100 µM | [31] > 100 µM | [32] > 100 µM | [33] > 100 µM | [34] > 100 µM | [35] > 100 µM | [36] > 100 µM | [37] 38.5 µM | [38] > 100 µM | [39] > 100 µM | [40] > 100 µM | [41] > 100 µM | [42] 80 µM | [43] > 100 µM | [44] > 100 µM | [45] > 100 µM | [46] 43.3 µM | [47] > 100 µM | [48] > 100 µM | [49] > 100 µM | [50] > 100 µM | [51] > 100 µM | [52] > 100 µM
> 100 µM: [13]
